Peptide text beside a SMILES is read from it.
T1: SPSB2 (His6-tagged SPRY domain of human SPSB2, residues 22-220) (Homo sapiens, UniProt Q99619)
T1 construct: His6; made in house
T1 sequence (Q99619 22-220): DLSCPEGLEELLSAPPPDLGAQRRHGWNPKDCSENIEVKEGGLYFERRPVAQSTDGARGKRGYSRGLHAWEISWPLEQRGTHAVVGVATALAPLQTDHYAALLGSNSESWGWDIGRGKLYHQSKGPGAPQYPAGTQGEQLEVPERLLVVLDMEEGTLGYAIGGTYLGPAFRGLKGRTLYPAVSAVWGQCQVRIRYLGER

T2: GST-tagged SPRY domain of human SPSB4 (residues 28-232) (human, UniProt Q96A44 28-232)
T2 construct: SPRY domain of human SPSB4, UniProtKB Q96A44, residues 28-232; Cloned into pGEX-4T-2; source: recombinant, induced with IPTG in LB medium, purified (glutathione sepharose 4B)
T2 sequence (looked up): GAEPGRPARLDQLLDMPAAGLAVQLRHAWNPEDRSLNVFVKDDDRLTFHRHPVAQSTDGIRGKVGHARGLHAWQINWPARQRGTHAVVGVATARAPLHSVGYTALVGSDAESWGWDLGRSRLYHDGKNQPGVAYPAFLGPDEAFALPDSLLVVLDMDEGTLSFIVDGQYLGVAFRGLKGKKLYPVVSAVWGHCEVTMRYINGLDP

T3: GST-tagged SPRY domain of human SPSB1 (residues 28-232) (human, UniProt Q96BD6 28-232)
T3 construct: SPRY domain of human SPSB1, UniProtKB Q96BD6, residues 28-232; Cloned into pGEX-4T-2; also called SPSP1; source: recombinant, induced with IPTG in LB medium, purified (glutathione sepharose 4B)
T3 sequence (looked up): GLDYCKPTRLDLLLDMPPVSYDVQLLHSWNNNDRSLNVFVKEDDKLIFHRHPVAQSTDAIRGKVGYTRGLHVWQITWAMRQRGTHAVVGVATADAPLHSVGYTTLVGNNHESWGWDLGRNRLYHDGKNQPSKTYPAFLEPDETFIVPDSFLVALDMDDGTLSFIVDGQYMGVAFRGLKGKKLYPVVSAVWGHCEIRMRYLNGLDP

T4: His6-tagged SPRY domain of human SPSB2 (residues 22-220) (human, UniProt Q99619 22-220)
T4 construct: SPRY domain of human SPSB2, UniProtKB Q99619, residues 22-220; also called SPRY domain-containing SOCS box protein 2; source: recombinant, purified (Ni-NTA; complexes with peptide by gel filtration on Superdex 75); preparation previously described [26]
T4 sequence (looked up): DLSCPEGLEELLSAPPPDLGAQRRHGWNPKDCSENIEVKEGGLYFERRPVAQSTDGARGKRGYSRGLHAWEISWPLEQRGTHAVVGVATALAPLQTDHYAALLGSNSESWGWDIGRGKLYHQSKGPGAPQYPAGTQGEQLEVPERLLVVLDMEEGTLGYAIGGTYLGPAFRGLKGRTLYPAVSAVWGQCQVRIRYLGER


Tests used:
[1] = system: SPSB2-iNOS interaction (GST-tagged SPRY domain of SPSB2; full-length iNOS from RAW 264.7 lysate); experiment: cell lysate inhibition assay, SPSB2-iNOS interaction (GST pull-down, Western blot); type: biochemical, human (SPSB2); conditions: for displacement of full-length iNOS from SPSB2: 10 μM peptide, LPS/IFN-γ-stimulated RAW 264.7 lysate, 2 h, pH 7.5 lysis buffer, GST pull-down, anti-iNOS Western blot
Method: (§1) Figure 6 Inhibition of SPSB-iNOS interactions by cR7, cR8, and cR9. Cell lysates from lipopolysaccharide/interferon-γ-stimulated RAW 264.7 cells were incubated with the GST-tagged SPRY domains of (A) SPSB2, (B) SPSB1, and (C) SPSB4 in the absence or presence of cR7, cR8, and cR9. GST-tagged SPRY domain of TRIM25 was used as a negative control. A 9-mer linear peptide (hK9) derived from the iNOS N-terminal region was included as a control. After interaction for 2 h, GST-fusion proteins were recovered via affinity purification using glutathione-sepharose 4B beads. Interaction with full-length iNOS was analyzed by Western blotting with anti-iNOS antibody (upper panels) and equivalent protein input was confirmed by reprobing the membranes with anti-GST antibody (lower panels).
(§2) The preparation of the recombinant His6-tagged SPRY domain of human SPSB2 (UniProtKB accession number Q99619, residues 22-220) has been previously described. Briefly, SPSB2 protein was initially purified using a Ni-NTA column and the amount of the protein was measured using the Bradford method. Either cR7 or cR9, at 1.5-fold molar excess, was then added to the protein and the SPSB2-cR7 and SPSB2-cR9 complexes were purified by gel filtration using a HiLoad 16/600 Superdex 75 column (GE Healthcare, Marlborough, MA, USA) equilibrated against a buffer containing 50 mM Tris-HCl pH 7.5, 150 mM NaCl, 5 mM DTT. To generate the GST-fusion proteins used in the cell lysate inhibition assay, the SPRY domains of human TRIM25 (UniProtKB Q14258, residues 433-630), SPSB2, SPSB1 (UniProtKB Q96BD6, residues 28-232), and SPSB4 (UniProtKB Q96A44, residues 28-232) were inserted into the pGEX-4T-2 vector (GE Healthcare, Marlborough, MA, USA). Protein expression was induced in an LB medium supplemented with 0.1 mM isopropyl β-D-1-thiogalactopyranoside (IPTG) at 18 °C overnight. Cells were harvested and resuspended in PBS, and then lysed using a cell disruptor (JNBIO, Guangzhou, China). Soluble GST-tagged proteins were purified using a glutathione sepharose 4B column prepared with PBS. […]

[2] = system: SPSB4-iNOS interaction (GST-tagged SPRY domain of SPSB4; full-length iNOS from RAW 264.7 lysate); experiment: cell lysate inhibition assay, SPSB4-iNOS interaction (GST pull-down, Western blot); type: biochemical, human (SPSB4); conditions: for displacement of full-length iNOS from SPSB4: 10 μM peptide, LPS/IFN-γ-stimulated RAW 264.7 lysate, 2 h, GST pull-down, anti-iNOS Western blot
Method: as §1, §2

[3] = molecular target: T1, SPSB2 (His6-tagged SPRY domain of human SPSB2, residues 22-220); experiment: isothermal titration calorimetry (ITC), binding to SPSB2; conditions: ITC Kd compared with cR8 Kd reported previously [19]
Method: as §2, with “overnight.” for “overnight. Cells were harvested and resuspended in PBS, and then lysed using a cell disruptor (JNBIO, Guangzhou, China). Soluble GST-tagged proteins were purified using a glutathione sepharose 4B column prepared with PBS.”
All ITC measurements were performed at 25 °C using iTC200 (Malvern Panalytical, Malvern, UK). […] The dissociation constant (Kd) was calculated, with the error from the Origin-calculated association constant (K) transferred as the same fraction of the primary value.

[4] = system: SPSB1-iNOS interaction (GST-tagged SPRY domain of SPSB1; full-length iNOS from RAW 264.7 lysate); experiment: cell lysate inhibition assay, SPSB1-iNOS interaction (GST pull-down, Western blot); type: biochemical, human (SPSB1); conditions: for inhibition of SPSB1-iNOS interaction: 1 μM peptide, LPS/IFN-γ-stimulated RAW 264.7 lysate, 2 h, GST pull-down, anti-iNOS Western blot
Method: as §1, §2

[5] = molecular target: T2, GST-tagged SPRY domain of human SPSB4 …; experiment: pull-down; competition: 1 μM or 10 μM cyclic peptide added to the RAW 264.7 lysate with 2 μg/mL GST-tagged SPRY domain for 2 h; iNOS recovered on glutathione sepharose 4B read by Western blot; conditions: both partners purified
[6] = molecular target: T3, GST-tagged SPRY domain of human SPSB1 …; experiment: as above; conditions: both partners purified
[7] = molecular target: T4, His6-tagged SPRY domain of human SPSB2 …; experiment: ITC; 100 μM cR7 or cR9 titrated into 10 μM SPSB2; 25 °C; 50 mM Tris-HCl pH 7.5, 150 mM NaCl, 5 mM DTT; single binding site model; conditions: both partners purified
[8] = overall comparison of cR7, cR8 and cR9, 1 or 10 μM, Western blot

SPSB2-binding affinity, fold higher than cR8 [3]	binding result [5]	binding result [6]	Kd [7] [nM]	stoichiometry N [7]	Molecule	displacement of full-length iNOS from SPSB2 [1]	overall inhibition of SPSB2-iNOS interaction, relative [1, 8]	displacement of full-length iNOS from SPSB4 [2]	overall inhibition of SPSB4-iNOS interaction, relative [2, 8]	inhibition of SPSB1-iNOS interaction [4]	overall inhibition of SPSB1-iNOS interaction, relative [4, 8]
~ 6.5 fold					CC[C@H](C)[C@@H]1NC(=O)[C@H](CC(=O)O)NC(=O)CNC(=O)[C@H](CCCNC(=N)N)NC(=O)[C@H](CC(N)=O)NC(=O)[C@H](CC(N)=O)NC(=O)[C@H](CC(N)=O)NC1=O [cR7, cyclo(RGDINNN)] (cyclo(RGDINNN))	able to displace full-length iNOS binding to SPSB2	stronger inhibition	able to displace full-length iNOS binding to SPSB4	stronger inhibition	can effectively inhibit SPSB1-iNOS interaction	stronger inhibition
~ 2 fold					CC[C@H](C)[C@@H]1NC(=O)[C@H](CC(=O)O)NC(=O)CNC(=O)[C@H](CCCNC(=N)N)NC(=O)[C@H](CCC(=O)O)NC(=O)[C@H](C(C)C)NC(=O)[C@H](CC(N)=O)NC(=O)[C@H](CC(N)=O)NC(=O)[C@H](CC(N)=O)NC1=O [cR9, cyclo(RGDINNNVE)] (cyclo(RGDINNNVE))	able to displace full-length iNOS binding to SPSB2		able to displace full-length iNOS binding to SPSB4		can effectively inhibit SPSB1-iNOS interaction	
	binds	binds	308		RGDINNNVE (head-to-tail amide-cyclized, designed cyclic peptide: RGD motif joined to the iNOS-derived stretch DINNNVE; Cyclic: the last residue is amide-bonded to the first; source: synthetic peptide (GL Biochem Ltd.)) [cR9, cyclo(RGDINNNVE)]						
	binds	binds	103	1	RGDINNN (head-to-tail amide-cyclized, Cyclic: the last residue is amide-bonded to the first; source: synthetic peptide (GL Biochem Ltd.)) [cR7, cyclo(RGDINNN)]						
